Measured values: patent US12018283B2, “Method for producing insulin-producing cells” (KATAOKA CORPORATION, priority 2018, dated 2024)

Test system: human fibroblasts
Assay: Direct induction from human fibroblasts into insulin-producing cells (immunostaining, morphology)
Format: cell-based
Settings: from Table 1 and FIGS. 3 and 4; removal of one compound at a time

Row | Compound | importance for conversion into cells expressing insulin
1 | O=c1cc(N2CCOCC2)oc2c(-c3ccccc3)cccc12 [LY294002] | of particular importance
2 | C=C[C@@]1(C)CC(=O)[C@]2(O)[C@@]3(C)[C@@H](O)CCC(C)(C)[C@@H]3[C@H](O)[C@H](OC(C)=O)[C@@]2(C)O1 [forskolin, Forskolin] | of particular importance
